Laboratory results taken from PMC9120017, “Inhibition mechanism of the chloride channel TMEM16A by the pore blocker 1PBC” (Nature Communications, 2022).
Read-outs that look alike come from different tables or passages of the source.

Target: T1, mouse TMEM16A mutant I516A (Mus musculus, UniProt Q8BHY3, I516A)
T1 construct: expressed in transfected cells; host or cells: HEK293T
T1 sequence (Q8BHY3 1-960 I516A): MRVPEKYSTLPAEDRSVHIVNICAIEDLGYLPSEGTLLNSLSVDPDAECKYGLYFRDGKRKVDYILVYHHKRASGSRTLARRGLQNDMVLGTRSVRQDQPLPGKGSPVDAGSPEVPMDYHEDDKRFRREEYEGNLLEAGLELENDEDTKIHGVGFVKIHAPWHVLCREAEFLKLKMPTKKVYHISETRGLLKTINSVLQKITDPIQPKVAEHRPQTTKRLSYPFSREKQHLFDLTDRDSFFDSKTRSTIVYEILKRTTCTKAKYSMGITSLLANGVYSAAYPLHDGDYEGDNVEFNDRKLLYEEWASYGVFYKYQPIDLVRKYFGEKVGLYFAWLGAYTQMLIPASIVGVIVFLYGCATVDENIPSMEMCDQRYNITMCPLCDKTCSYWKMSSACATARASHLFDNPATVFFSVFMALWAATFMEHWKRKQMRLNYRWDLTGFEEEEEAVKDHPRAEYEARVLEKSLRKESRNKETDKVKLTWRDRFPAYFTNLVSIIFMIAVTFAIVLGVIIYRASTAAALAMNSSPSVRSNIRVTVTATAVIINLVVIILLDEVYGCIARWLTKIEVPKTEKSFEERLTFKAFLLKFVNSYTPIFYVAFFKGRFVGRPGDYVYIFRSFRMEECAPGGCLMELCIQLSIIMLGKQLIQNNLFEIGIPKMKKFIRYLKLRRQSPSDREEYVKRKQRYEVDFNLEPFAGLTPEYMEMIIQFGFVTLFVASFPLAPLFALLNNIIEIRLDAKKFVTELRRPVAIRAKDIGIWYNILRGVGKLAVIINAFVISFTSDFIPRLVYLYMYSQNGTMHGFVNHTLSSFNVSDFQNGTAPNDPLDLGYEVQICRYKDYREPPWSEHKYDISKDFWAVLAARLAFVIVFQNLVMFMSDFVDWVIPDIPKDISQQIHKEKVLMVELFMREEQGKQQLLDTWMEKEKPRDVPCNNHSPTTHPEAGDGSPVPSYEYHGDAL
Assay: Inside-out patch recording of 1PBC block, mutant I516A
Type: cell-based
Conditions: for remaining activity at 1 µM: 1PBC 1; for remaining activity at 1 µM / remaining activity at 3 µM / remaining activity at 10 µM / remaining activity at 30 µM / remaining activity at 100 µM: read-out: fraction of unblocked current; for remaining activity at 3 µM: 1PBC 3; for remaining activity at 10 µM: 1PBC 10; for remaining activity at 30 µM: 1PBC 30; for remaining activity at 100 µM: 1PBC 100
Experimental: HEK293T cells (ATCC CRL-1573) were maintained in Dulbecco’s modified Eagle’s medium (DMEM; Sigma-Aldrich) supplemented with 10 U ml^−1 penicillin, 0.1 mg ml^−1 streptomycin (Sigma-Aldrich), 2 mM L-glutamine (Sigma-Aldrich), and 10% FBS (Sigma-Aldrich) in a humidified atmosphere containing 5% CO2 at 37 °C. HEK293S GnTI^− cells (ATCC CRL-3022) were maintained in HyClone HyCell TransFx-H medium (GE Healthcare) supplemented with 10 U ml^−1 penicillin, 0.1 mg ml^−1 streptomycin, 4 mM L-glutamine, 0.15% poloxamer 188 (Sigma-Aldrich), and 1% FBS in an atmosphere containing 5% CO2 at 185 rpm at 37 °C. The ac splice variant of mouse TMEM16A (UniProt ID: Q8BHY3), mouse TMEM16B (UniProt ID: Q8CFW1), or mouse TMEM16F (UniProt ID: Q6P9J9) bearing a 3C cleavage site, a Venus YFP, a Myc tag, and a Streptavidin-binding peptide (SBP) downstream of the open reading frame in a modified pcDNA3.1 vector (Invitrogen) were used as described previously[21],[31]. Mutations were introduced using a modified QuikChange method[58] and were verified by sequencing.
HEK293T cells were transfected with 3–4 μg DNA per 6 cm Petri dish using the calcium phosphate co-precipitation method and were used within 24–96 h after transfection. Recordings were performed on inside-out patches excised from HEK293T cells expressing the construct of interest. Patch pipettes were pulled from borosilicate glass capillaries (O.D. 1.5 mm, I.D. 0.86 mm, Sutter Instrument) and were fire-polished with a microforge (Narishige) before use. Pipette resistance was typically 3–8 MΩ when filled with the recording solutions detailed below. Seal resistance was typically 4 GΩ or higher. Voltage-clamp recordings were made using Axopatch 200B, Digidata 1550, and Clampex 10.7 (Molecular Devices). Analog signals were filtered with the in-built 4-pole Bessel filter at 10 kHz and were digitized at 20 kHz. Solution exchange was achieved using a gravity-fed system through a theta glass pipette mounted on an ultra-fast piezo-driven stepper (Siskiyou). […] All recordings were performed at 20 °C.
A symmetrical ionic condition was used throughout. Stock solution with Ca^2+-EGTA contained 150 mM NaCl, 5.99 mM Ca(OH)2, 5 mM EGTA, and 10 mM HEPES at pH 7.40. Stock solution with EGTA contained 150 mM NaCl, 5 mM EGTA, and 10 mM HEPES at pH 7.40. Free Ca^2+ concentrations were adjusted by mixing the stock solutions at the required ratios calculated using the WEBMAXC program (http://web.stanford.edu/~cpatton/webmaxcS.htm). Patch pipettes were filled with the stock solution with Ca^2+-EGTA, which has a free Ca^2+ concentration of 1 mM. 1PBC (ChemBridge) stock was reconstituted in anhydrous DMSO (Sigma-Aldrich) at 100 mM and stored at −20 °C. Working solutions with 1PBC were prepared by serial dilution. Unless otherwise stated, experiments were performed at a saturating Ca^2+ concentration as shown in Supplementary Table 1 and the primary data were corrected for current rundown as described previously[21],[25].
Concentration-response relations, obtained from the ratio of the I-V plots before and after the application of the blocker, were fitted to the Hill equation,1 I/Imax=1/1+IC50/[blocker]^h where I/Imax is the normalized current responses, IC50 defines the concentration at which inhibition is at its half-maximum, and h is the Hill coefficient.

IC50 (0 mV, 2 µM Ca2+): 5.69 µM
remaining activity at 1 µM (0 mV): 81.6%
remaining activity at 1 µM (20 mV): 79%
remaining activity at 1 µM (40 mV): 76.3%
remaining activity at 1 µM (60 mV): 76.1%
remaining activity at 1 µM (80 mV): 76%
remaining activity at 1 µM (100 mV): 78.2%
remaining activity at 1 µM (120 mV): 80.5%
remaining activity at 1 µM (140 mV): 85%
remaining activity at 1 µM (-20 mV): 84.2%
remaining activity at 1 µM (-40 mV): 86.9%
remaining activity at 1 µM (-60 mV): 90.5%
remaining activity at 1 µM (-80 mV): 93.4%
remaining activity at 1 µM (-100 mV): 94.6%
remaining activity at 1 µM (-120 mV): 96.7%
remaining activity at 1 µM (-140 mV): 99.6%
remaining activity at 3 µM (0 mV): 66.1%
remaining activity at 3 µM (20 mV): 63.1%
remaining activity at 3 µM (40 mV): 60.5%
remaining activity at 3 µM (60 mV): 57.3%
remaining activity at 3 µM (80 mV): 57.5%
remaining activity at 3 µM (100 mV): 58.7%
remaining activity at 3 µM (120 mV): 60.2%
remaining activity at 3 µM (140 mV): 62.8%
remaining activity at 3 µM (-20 mV): 69.1%
remaining activity at 3 µM (-40 mV): 74.1%
remaining activity at 3 µM (-60 mV): 78.3%
remaining activity at 3 µM (-80 mV): 81.5%
remaining activity at 3 µM (-100 mV): 84.3%
remaining activity at 3 µM (-120 mV): 86.9%
remaining activity at 3 µM (-140 mV): 88%
remaining activity at 10 µM (0 mV): 37.2%
remaining activity at 10 µM (20 mV): 33.9%
remaining activity at 10 µM (40 mV): 31.3%
remaining activity at 10 µM (60 mV): 30.4%
remaining activity at 10 µM (80 mV): 30.4%
remaining activity at 10 µM (100 mV): 30.4%
remaining activity at 10 µM (120 mV): 31.9%
remaining activity at 10 µM (140 mV): 35.1%
remaining activity at 10 µM (-20 mV): 40.4%
remaining activity at 10 µM (-40 mV): 43.9%
remaining activity at 10 µM (-60 mV): 48.6%
remaining activity at 10 µM (-80 mV): 50.8%
remaining activity at 10 µM (-100 mV): 55.1%
remaining activity at 10 µM (-120 mV): 58%
remaining activity at 10 µM (-140 mV): 60.3%
remaining activity at 30 µM (0 mV): 16.3%
remaining activity at 30 µM (20 mV): 15%
remaining activity at 30 µM (40 mV): 13.7%
remaining activity at 30 µM (60 mV): 12.5%
remaining activity at 30 µM (80 mV): 12.7%
remaining activity at 30 µM (100 mV): 13.1%
remaining activity at 30 µM (120 mV): 14.6%
remaining activity at 30 µM (140 mV): 16.7%
remaining activity at 30 µM (-20 mV): 17.7%
remaining activity at 30 µM (-40 mV): 19.9%
remaining activity at 30 µM (-60 mV): 22.8%
remaining activity at 30 µM (-80 mV): 25.3%
remaining activity at 30 µM (-100 mV): 28%
remaining activity at 30 µM (-120 mV): 31.5%
remaining activity at 30 µM (-140 mV): 34.4%
remaining activity at 100 µM (0 mV): 6.15%
remaining activity at 100 µM (20 mV): 5.12%
remaining activity at 100 µM (40 mV): 5.16%
remaining activity at 100 µM (60 mV): 5.16%
remaining activity at 100 µM (80 mV): 5.57%
remaining activity at 100 µM (100 mV): 6.35%
remaining activity at 100 µM (120 mV): 6.87%
remaining activity at 100 µM (140 mV): 7.57%
remaining activity at 100 µM (-20 mV): 7.18%
remaining activity at 100 µM (-40 mV): 7.63%
remaining activity at 100 µM (-60 mV): 9.24%
remaining activity at 100 µM (-80 mV): 10.6%
remaining activity at 100 µM (-100 mV): 12.4%
remaining activity at 100 µM (-120 mV): 14.7%
remaining activity at 100 µM (-140 mV): 17.2%
IC50 (20 mV, 2 µM Ca2+): 4.91 µM
IC50 (40 mV, 2 µM Ca2+): 4.32 µM
IC50 (60 mV, 2 µM Ca2+): 3.97 µM
log-fold IC50 (change of mutant vs WT) (80 mV): 0.3402
IC50 (80 mV, 2 µM Ca2+): 4 µM
IC50 (100 mV, 2 µM Ca2+): 4.22 µM
IC50 (120 mV, 2 µM Ca2+): 4.6 µM
IC50 (140 mV, 2 µM Ca2+): 5.41 µM
IC50 (-20 mV, 2 µM Ca2+): 6.57 µM
IC50 (-40 mV, 2 µM Ca2+): 7.87 µM
IC50 (-60 mV, 2 µM Ca2+): 9.65 µM
IC50 (-80 mV, 2 µM Ca2+): 11 µM
IC50 (-100 mV, 2 µM Ca2+): 12.9 µM
IC50 (-120 mV, 2 µM Ca2+): 15 µM
IC50 (-140 mV, 2 µM Ca2+): 17 µM
IC50 (I516A, V 0 mV): 5.69 µM
IC50 (I516A, V 20 mV): 4.91 µM
IC50 (I516A, V 40 mV): 4.32 µM
IC50 (I516A, V 60 mV): 3.97 µM
IC50 (I516A, V 80 mV): 4 µM
IC50 (I516A, V 100 mV): 4.22 µM
IC50 (I516A, V 120 mV): 4.6 µM
IC50 (I516A, V 140 mV): 5.41 µM
IC50 (I516A, V -20 mV): 6.57 µM
IC50 (I516A, V -40 mV): 7.87 µM
IC50 (I516A, V -60 mV): 9.65 µM
IC50 (I516A, V -80 mV): 11 µM
IC50 (I516A, V -100 mV): 12.9 µM
IC50 (I516A, V -120 mV): 15 µM
IC50 (I516A, V -140 mV): 17 µM
SMILES: N#Cc1c(C(F)(F)F)cc(O)n2c1nc1ccccc12 [1PBC]
